pEC50, pIC50: −log10 of the molar value. Where a name gives a salt, the structure may show the parent alone. Read-outs that look alike come from different tables or passages of the source.
What was measured:
BSEP = system: BSEP; set-up: method as in Funk et al., 2001; details: ref Funk et al., 2001; read-out: IC50 of BSEP inhibition; cited from earlier work
PHH spheroids = test: Viability (cellular ATP, CellTiter-Glo) of 3D PHH spheroids after single or repeated exposure; format: cell-based, human; details: for pEC50: read-out: EC50 (viability)
HepaRG cells = test: cells; format: cell-based; details: Homo sapiens; for pEC50: read-out: EC50 (viability)
hiPS-Hep cells = test: Viability (cellular ATP, CellTiter-Glo) of hiPS-Hep cells after single or repeated exposure; format: cell-based; details: Homo sapiens; for pEC50: read-out: EC50 (viability); for pIC50: read-out: 14-day IC50
HepaRG = details: cited from earlier work
HepG2 = details: cited from earlier work
HLC = system: HLC; set-up: method as in Takayama et al. (2013), Tasnim et al. (2016); details: read-out: Sensitivity, HLC Acute, cited from earlier work
C3A = system: C3A; set-up: method as in Fey and Wrzesinski (2012); details: published spheroid model, acute; ref Fey and Wrzesinski (2012); read-out: Sensitivity, C3A Acute; cited from earlier work
Rat Hepatocytes = system: Rat Hepatocytes; set-up: method as in Schutte et al. (2011); details: published model, acute; ref Schutte et al. (2011); read-out: Sensitivity, Rat Hepatocytes Acute; cited from earlier work
[1] = 4 g APAP daily for 14 days; ref Watkins et al., 2006; cited from earlier work
[2] = cited from earlier work; for Cmax: human
[3] = 336 h, HepaRG cells, 14 days repeated exposure, read-out: 14-day IC50
[4] = 336 h, hiPS-Hep cells, 14 days repeated exposure
[5] = published spheroid model, acute, ref Gunness et al. (2013), Mueller et al. (2014), read-out: Sensitivity, HepaRG Acute
[6] = published spheroid model, acute, ref Mueller et al. (2014), Ramaiahgari et al. (2014), Takayama et al. (2013), read-out: Sensitivity, HepG2 Acute
[7] = published spheroid model, repeated dose 6 days, ref Ramaiahgari et al. (2014), read-out: Sensitivity, HepG2 Repeated Dose (6 Days)
[8] = published spheroid model, acute, ref Takayama et al. (2013), Tasnim et al. (2016)

Compound	pEC50 (PHH spheroids; Homo sapiens, 48 h)	pEC50 (PHH spheroids; Homo sapiens, 168 h)	pEC50 (PHH spheroids; Homo sapiens, 336 h)	pIC50 (HepaRG cells; [3])	pEC50 (HepaRG cells; HepaRG, 48 h)	pEC50 (HepaRG cells; HepaRG, 168 h)	pEC50 (HepaRG cells; HepaRG, 336 h)	pEC50 (hiPS-Hep cells; 48 h)	pEC50 (hiPS-Hep cells; 168 h)	pEC50 (hiPS-Hep cells; 336 h)	pIC50 (hiPS-Hep cells; [4])	pIC50 (HepaRG; [5])	pIC50 (HepG2; [6])	pIC50 (HepG2; [7])	pIC50 (HLC; [8])	further results
Cc1c(C)c2c(c(C)c1OS(=O)(=O)O)CCC(C)(COc1ccc(CC3SC(=O)NC3=O)cc1)O2 (stereo not drawn) [troglitazone sulfate]																pIC50 (BSEP): 6.40
CC(=O)Nc1ccc(O)cc1 [APAP, acetaminophen]	< 2.00	2.57	3.19	2.88	2.23	2.80	2.88	< 2.00	< 2.00	2.03	2.03	2.52	1.62	2.03	1.52	pIC50 (PHH spheroids; Homo sapiens, 336 h, PHH spheroids, 14 days repeated exposure, read-out: 14-day IC50): 3.19; pIC50 (HepaRG cells; read-out: 48-hour IC50, HepaRG cells, acute, 48 hours): 2.23; pIC50 (C3A): 1.40; pIC50 (Rat Hepatocytes): 1.40; healthy volunteers with serum alanine aminotransferase elevations above three times the upper limit [1]: 31%–44%; peak APAP serum level average ([2]; healthy volunteers, 4 g APAP daily for 14 days, ref Watkins et al., 2006): 99.2 µM; APAP plasma concentration for which immediate treatment is stipulated ([2]; patients after acute overdose, depending on additional risk factors, ref Vale and Proudfoot, 1995): 0.7 to 1.3 mM; Cmax ([2]; read-out: Cmax or exposure value (toxic), toxic exposure, ref Vale and Proudfoot, 1995): 700000 nM
CN(C)CCCN1c2ccccc2Sc2ccc(Cl)cc21 [Chlorpromazine, chlorpromazine]	4.78	5.06	5.34	4.47	4.17	4.49	4.47	4.41	4.63	4.61	4.61	4.01	4.37			pIC50 (HepaRG; published spheroid model, repeated dose 72 h, ref Mueller et al. (2014), read-out: Sensitivity, HepaRG Repeated Dose (72 h)): 4.37; Cmax ([2]; read-out: human toxic Cmax, toxic exposure, ref Regenthal et al., 1999): 1600 nM
Cc1c(C)c2c(c(C)c1O)CCC(C)(COc1ccc(CC3SC(=O)NC3=O)cc1)O2 (stereo not drawn) [Troglitazone, troglitazone]	4.43	5.38	5.82		< 4.00	4.44	4.46	4.34	4.47	4.73		3.40	3.82 to 4.10	4.00	4.30	pIC50 (PHH spheroids; Homo sapiens, read-out: Sensitivity, PHH Acute): 4.43; pIC50 (HepaRG cells; HepaRG, 336 h, read-out: 14-day IC50): 4.46; pIC50 (hiPS-Hep cells; 336 h): 4.73; Cmax ([2]; read-out: therapeutic Cmax, ref Loi et al., 1999): 2820 nM
CCOC(=O)CN[C@@H](C(=O)N1CC[C@H]1C(=O)NCc1ccc(/C(N)=N\O)cc1)C1CCCCC1 [Ximelagatran, ximelagatran]	< 3.40	3.42	3.78		< 3.40	< 3.40	< 3.40	< 3.40	< 3.40	< 3.40						
aflatoxin B1																pIC50 (PHH spheroids; read-out: Sensitivity, PHH Acute): 6.40; pIC50 (PHH spheroids; read-out: Sensitivity, PHH Repeated Dose (14 Days)): 7.52; pIC50 (HepaRG; read-out: Sensitivity, HepaRG Acute): 5.80; pIC50 (HepG2; read-out: Sensitivity, HepG2 Acute): < 3.70; pIC50 (HLC): 5.15; exposure levels detected in exposed individuals ([2]; in vivo): 28.5 nM; Cmax ([2]; read-out: Cmax or exposure value (toxic), in vivo): 30 nM
